Assay results taken from PMC8522729 (Antimicrobial Agents and Chemotherapy, 2021).
Values after ≈ are worked out from the molar mass of the structure shown. Read-outs that look alike come from different tables or passages of the source.

Key:
M. tuberculosis H37Rv [1] = experiment: MIC by broth microdilution (MABA), with and without 4% huSA (serum-shift assay); conditions: MIC with 4% huSA vs without
M. tuberculosis Erdman = experiment: as above; conditions: for Serum shift (fold increase): M. tuberculosis Erdman, MIC with 4% huSA vs without; for protein binding by this assay (MIC shift): indicated by 8-fold MIC shift with 4% huSA
M. tuberculosis [2] = conditions: QD, cited from earlier work
M. tuberculosis [3] = system: M. tuberculosis; set-up: method as in PMID 24957839, PMID 24215368, PMID 24874895; conditions: acute BALB/c mouse model; 100 mg/kg QD; cited from earlier work
M. tuberculosis [4] = conditions: chronic BALB/c mouse model, cited from earlier work
[5] = system: M. tuberculosis Erdman-infected C3HeB/FeJ mice; experiment: Efficacy in the C3HeB/FeJ mouse tuberculosis model (CFU in lungs and spleens, kill rates); format: in vivo; conditions: for dose at which maximal efficacy in spleens was achieved / LME (lowest dose with the maximum effect) in lungs: 8 weeks of treatment, OPC-167832 QD; for dose at which maximal efficacy in spleens was achieved: TBA-7371 BID (not yet achieved); for LME (lowest dose with the maximum effect) in lungs: TBA-7371 BID, PBTZ169 QD; for average lung CFU reduction compared to untreated controls: 5 of 7 days per week; for effect on lung CFU compared to pretreatment control and untreated controls / CFU reduction in spleen: 4 weeks of treatment, all doses; for effect on lung CFU compared to pretreatment control and untreated controls: P > 0.05; for CFU reduction in spleen: spleens
M. tuberculosis [6] = conditions: cited from earlier work
[7] = Plasma, lung and lesion drug levels (LC-MS/MS and LCM-LC-MS/MS)
[8] = C3HeB/FeJ, mouse, in vivo
[9] = cited from earlier work
[10] = system: pulmonary pathology of M. tuberculosis-infected C3HeB/FeJ mice; experiment: Pulmonary histopathology (pathologist scoring and LIRA); format: in vivo; conditions: 100 mg/kg QD, 8 weeks
M. tuberculosis Kurono = system: M. tuberculosis Kurono; set-up: method as in PMID 32229496; conditions: chronic ICR mouse model, cited from earlier work
[11] = system: nonreplicating bacteria in rabbit caseum; experiment: Caseum MBC assay; format: cell-based, Mycobacterium tuberculosis; conditions: 7 days
[12] = cited from earlier work; remark: listed apart in the source
M. tuberculosis H37Rv [13] = system: M. tuberculosis H37Rv; set-up: method as in PMID 19299584; conditions: cited from earlier work
[14] = lungs, 8 weeks, all three OPC-167832 groups, TBA-7371 medium and high dose, PBTZ169 medium and high dose, P < 0.05 Dunnett
[15] = C3HeB/FeJ, mouse, in vivo, 5 mg/kg

## O=[N+]([O-])c1cn2c(n1)OC[C@@H](OCc1ccc(OC(F)(F)F)cc1)C2 [Pretomanid, pretomanid]
M. tuberculosis H37Rv [1]
  Serum shift (fold increase): 4 fold
M. tuberculosis Erdman
  Serum shift (fold increase): 4 fold

## COc1ncnc(Cn2cc(C(=O)NCCO)c3ncc(C)cc32)c1C [TBA-7371]
M. tuberculosis [2]
  MED99 (minimal effective dose giving 2-log reduction in lung bacterial load vs untreated): 100 mg/kg
M. tuberculosis [3]
  CFU reduction in lungs compared to untreated controls: more than 2 log10 CFU
M. tuberculosis [4]; 100 mg/kg QD
  CFU reduction in lungs: 1.5 log10 CFU
[5]
  dose at which maximal efficacy in spleens was achieved: ≥ 200 mg/kg
  LME (lowest dose with the maximum effect) in lungs: 100 mg/kg
  CFU reduction in spleen: dose-dependent CFU reduction
[5]; 8 weeks, 100 and 200 mg/kg BID
  average lung CFU reduction compared to untreated controls: 1.5 log10 CFU
[5]; lungs
  effect on lung CFU compared to pretreatment control and untreated controls: not statistically significant
[5]; [14]
  lung bacterial load compared to the untreated control group: statistical significant reduction in the lung bacterial load
M. tuberculosis [6]
  MIC: 0.64 µg/mL (≈ 1.8 µM)
[7]; C3HeB/FeJ, mouse, in vivo, 100 mg/kg
  Cmax: ~8600 ng/g

## O=c1nc(N2CCN(CC3CCCCC3)CC2)sc2c([N+](=O)[O-])cc(C(F)(F)F)cc12 [PBTZ169, macozinone]
[8]; 15 min
  plasma and lung concentration at T1, fold above the MIC+huSA: 11-20 fold
M. tuberculosis [2]; published or reported mouse infection studies, no reference given
  MED99 (minimal effective dose giving 2-log reduction in lung bacterial load vs untreated): 50 mg/kg
M. tuberculosis [4]; after 4 weeks of treatment
  CFU reduction in lungs versus untreated controls: 1 log10 CFU
M. tuberculosis [4]
  additional CFU reduction in lungs versus BTZ043: 0.5 log10 CFU
  additional CFU reduction in spleens versus BTZ043: 1 log10 CFU
[5]
  LME (lowest dose with the maximum effect) in lungs: 50 mg/kg
  CFU reduction in spleen: no statistically significant CFU reduction
[5]; 8 weeks, 50 and 100 mg/kg QD
  average lung CFU reduction compared to untreated controls: 1.5 log10 CFU
[5]; lungs
  effect on lung CFU compared to pretreatment control and untreated controls: not statistically significant
[5]; [14]
  lung bacterial load compared to the untreated control group: statistical significant reduction in the lung bacterial load
M. tuberculosis [6]
  MIC fold lower versus BTZ043: 3 fold
[7]; 50 mg/kg QD, 2.5 weeks
  Cmax in the cellular-caseum interface and caseum, fold lower than plasma or whole lung Cmax: 10 fold
[7]; 50 mg/kg QD, 2.5 weeks, T1 15 min
  concentration in plasma and lungs at T1 (Cmax): around 1 μg/ml or μg/g
[9]
  selectivity index: > 10,000
M. tuberculosis Erdman
  Serum shift (fold increase): 8 fold
  protein binding by this assay (MIC shift): ~88%
[10]
  type III cellular lesions, lung involvement (LIRA): more than 35%
  type III lesion lung involvement relative to untreated control group (LIRA): more than 2 fold

## O=C1CCc2c(OC[C@]3(O)CCN(c4c(F)cc(Cl)cc4F)C[C@H]3O)ccc(F)c2N1 [OPC-167832]
[8]; 1 h
  concentration in caseum (acellular) at T1, fold above the MIC+huSA: 12 fold
  concentration in caseum at T1, fold in excess of the MIC+huSA: 20 fold
  plasma and lung concentration at T1, fold above the MIC+huSA: 75-85 fold
M. tuberculosis [2]
  MED99 (minimal effective dose giving 2-log reduction in lung bacterial load vs untreated): 5 mg/kg
[5]
  dose at which maximal efficacy in spleens was achieved: 5 mg/kg
  LME (lowest dose with the maximum effect) in lungs: 5 mg/kg
  CFU reduction in spleen: dose-dependent CFU reduction
[5]; 8 weeks, 5 and 20 mg/kg QD
  average lung CFU reduction compared to untreated controls: 3 log10 CFU
[5]; lungs, 4 weeks, 20 mg/kg QD, P = 0.04 Dunnett
  efficacy in lungs versus the pretreatment control group: statistically significant efficacy
[5]; lungs, 4 weeks, all three dose groups (1.25, 5, 20 mg/kg QD), P = 0.002 to 0.03 Dunnett
  lung bacterial load compared to the untreated control group: statistically significant reduction in lung bacterial load
[5]; [14]
  lung bacterial load compared to the untreated control group: statistical significant reduction in the lung bacterial load
M. tuberculosis Kurono; 5 mg/kg for 4 weeks
  CFU reduction in lungs versus the start of treatment: > 1.5 log10 CFU
M. tuberculosis Kurono
  dose showing bactericidal activity: 0.625 mg/kg
[7]; 5 mg/kg QD, 2.5 weeks
  drug level in caseous core / cellular-caseum interface at plasma Cmax, fold in excess of the MIC+huSA: approximately 21 fold
[7]; [15]
  Cmax at 1 h: 35 ng/g
  concentration at 1 h: 190 ng/g
  concentration at 24 h: 34 to 108 ng/g
[11]; Mycobacterium tuberculosis, 168 h, rabbit caseum, read-out: caseum MBC90
  MBC: 500 µg/mL (≈ 1090 µM)
[11]; highest concentration tested (1 mg/ml), P = 0.0005
  reduction from treatment start in caseum: 1 log
M. tuberculosis Erdman
  Serum shift (fold increase): 8 fold
  protein binding by this assay (MIC shift): ~88%

## C[C@H]1COC2(CCN(c3nc(=O)c4cc(C(F)(F)F)cc([N+](=O)[O-])c4s3)CC2)O1 [BTZ043]
[12]
  plasma protein binding: > 99.8%
[9]
  selectivity index: > 10,000
M. tuberculosis H37Rv [13]
  MIC: 0.001 µg/mL (≈ 0.00232 µM)
